Reference: patent US12030903B2, “Antiviral compounds” (Gilead Sciences, Inc., priority 2020, dated 2024)
pEC50: −log10 of the molar value.

Assays:
[1] = tested on: Dengue serotype 2 New Guinea C (NGC) strain; test: DENV-2 Huh-7 EC50 (qPCR of viral RNA in infected Huh7 cells); assay type: cell-based; conditions: Dengue virus, DENV2, Huh-7, Huh7 cells infected with Dengue serotype 2 NGC, MOI=0.1, 48 hours
Protocol: Huh7 (Human hepatocarcinoma 7) cells were maintained in 10% FCS-containing DMEM complete media. On the day of the assay, cells were trypsinized (0.1% Trypsin-EDTA), washed and infected for 2 hours in serum-free DMEM with Dengue serotype 2 New Guinea C (NGC) strain at MOI=0.1 with gentle agitation at 37° C. After 2 hours, cells were washed with serum-free media and suspended in 10% FCS-containing DMEM (Gibco, supplemented with sodium pyruvate, NEAA, Penicillin-Streptomycin). 10^5 cells were plated in triplicate in 96-well plates with compounds dispensed at graded doses (Hewlett-Packard D300 Digital Dispenser). All wells were normalized to 0.25% DMSO. At 48 hours, cells were washed with 1× PBS and all supernatants removed. Total RNA was extracted using RNEasy 96 plates (Qiagen) and used to generate first-strand cDNA using XLT cDNA 5× Supermix (QuantaBio). cDNA was used as a template in a Taqman qPCR duplex reaction specific to DENV2 viral and GAPDH gene expression. EC50 values were determined using Prism Graphpad software, with normalization to a positive control and no compound negative control wells.

RSV strain A2 = test: RSV HEp-2 EC50 (infectious cytopathic cell protection assay); assay type: cell-based, RSV strain A2; HEp-2 cells; conditions: human respiratory syncytial virus, HEp-2, 96 h, read-out: RSV Hep-2 EC50
Protocol: Example 86. RSV HEp-2 EC50
Antiviral activity against RSV is determined using an infectious cytopathic cell protection assay in HEp-2 cells. In this assay, compounds inhibiting viral infection and/or replication produce a cytoprotective effect against the virus-induced cell killing that can be quantified using a cell viability reagent. The techniques used here are novel adaptations of methods described in published literature (Chapman et al., Antimicrob Agents Chemother. 2007, 51(9):3346-53.)
HEp-2 cells are obtained from ATCC (Manassas, VI) and maintained in MEM media supplemented with 10% fetal bovine serum and penicillin/streptomycin. Cells are passaged twice a week and kept at subconfluent stage. Commercial stock of RSV strain A2 (Advanced Biotechnologies, Columbia, MD) is titered before compound testing to determine the appropriate dilution of the virus stock that generates desirable cytopathic effect in HEp-2 cells.
For antiviral tests, HEp-2 cells are grown in large cell culture flasks to near confluency but not fully so. The compounds to be tested are prediluted in DMSO in 384-well compound dilution plates, either in an 8 or 40 sample per plate standardized dose response format. 3-fold serial dilution increments of each test compound are prepared in the plates and test samples are transferred via acoustic transfer apparatus (Echo, Labcyte) at 100 nL per well into cell culture assay 384-well plates. Each compound dilution is transferred in single or quadruplicate samples into dry assay plates, which are stored until assay is ready to go. The positive and negative controls are laid out in opposite on ends of the plate in vertical blocks (1 column).
Subsequently, an infectious mixture is prepared using an appropriate dilution of virus stock previously determined by titration with cells at a density of 50,000/mL and 20 uL/well is added to test plates w/compounds via automation (uFlow, Biotek). Each plate includes negative and positive controls (16 replicates each) to create 0% and 100% virus inhibition standards, respectively. Following the infection with RSV, testing plates are incubated for 4 days in a 37° C. cell culture incubator. After the incubation, a cell viability reagent, Cell TiterGlo (Promega, Madison, WI) is added to the assay plates, which are incubated briefly, and a luminescent readout is measured (Envision, Perkin Elmer) in all the assay plates. The RSV-induced cytopathic effect, percentage inhibition, is determined from the levels of remaining cell viability. […] Various potent anti-RSV tool compounds are used as positive controls for antiviral activity.

[2] = HEp-2 CC50 (cytotoxicity in uninfected HEp-2 cells); assay type: cell-based; conditions: human, CellTiter Glo
Protocol: Instead, an uninfected cell mixture at the same density is added at 20 uL/well to plates containing prediluted compounds, also at 100 nL/sample. Assay plates are then incubated for 4 days followed by a cell viability test using the same CellTiter Glo reagent addition and measurement of luminescent readouts. Untreated cell and cells treated at 2 μM puromycin (Sigma, St. Louis, MO) serve as 100% and 0% cell viability control, respectively.

[3] = moDC CC50 (CellTiter Glo viability); assay type: cell-based, Human; conditions: human, uninfected moDCs
Protocol: Human monocyte-derived dendritic cells (moDCs) were derived from CD14+ monocytes (AllCells) cultured in Human Mo-DC Differentiation medium containing GM-CSF and IL-4 (Miltenyi Biotec). On day 7, moDCs were harvested by mechanical disruption, washed and cultured in triplicate at […] cells/well in 96-well plates with compounds dispensed at graded doses (Hewlett-Packard D300 Digital Dispenser). All wells were normalized to 0.25% DMSO. After 48 hours, CellTiter Glo (Promega) was added and incubated for 10 minutes at room temp before reading on a luminometer. % viability curves were calculated against no compound and no cell control wells. CC50 values were determined using Prism Graphpad software.

[4] = Huh-7 CC50 (CellTiter Glo viability); assay type: cell-based, Human; conditions: human, Huh7 hepatocarcinoma cells
Protocol: Human hepatocarcinoma 7 (Huh7) cells were maintained in 10% FCS-containing complete DMEM. On day of assay, cells were trypsinized with 0.1% Trypsin-EDTA, washed and cultured in triplicate at 1-2×10^4 cells/well in 96-well plates with compounds dispensed at graded doses (Hewlett-Packard D300 Digital Dispenser). All wells were normalized to 0.25% DMSO. After 48 hours, CellTiter Glo (Promega) was added and incubated for 10 minutes at room temp before reading on a luminometer. % viability curves were calculated against no compound and no cell control wells. CC50 values were determined using Prism Graphpad software.

[5] = tested on: Dengue 2, New Guinea strain (NGC); test: DENV-2 moDC EC50 (qPCR of viral RNA in infected moDCs); assay type: cell-based, New Guinea strain (NGC); human moDCs; conditions: Dengue virus, human moDCs infected with Dengue 2 NGC, MOI=0.1, 48 hours
Protocol: Example 82. DENV-2 moDC EC50
Human monocyte-derived dendritic cells (moDCs) were derived from CD14+ monocytes (AllCells) cultured in Human Mo-DC Differentiation medium containing GM-CSF and IL-4 (Miltenyi Biotec). On day 7, moDCs were harvested by mechanical disruption, washed and suspended in serum-free RPMI. moDCs were infected with Vero-derived Dengue 2, New Guinea strain (NGC) at a MOI=0.1 for two hours in serum-free RPMI with gentle agitation at 37° C. Cells were washed and resuspended in 10% serum-containing RPMI (Gibco, supplemented with sodium pyruvate, NEAA, Penicillin-Streptomycin). […] were plated in triplicate in 96-well plates with compounds dispensed at graded doses (Hewlett-Packard D300 Digital Dispenser). All wells were normalized to 0.25% DMSO. At 48 hours, cells were washed with 1×PBS and all supernatants removed. Total RNA was extracted using RNEasy 96 plates (Qiagen) and used to generate first-strand cDNA using XLT cDNA 5× Supermix (QuantaBio). cDNA was used as a template in a Taqman qPCR duplex reaction specific to DENV2 viral and GAPDH gene expression. EC50 values were determined using Prism Graphpad software, with normalization to a positive control and no compound negative control wells.

Compound | pEC50 [1] | pEC50 (RSV strain A2) | CC50 at 4 days [2] [nM] | CC50 at 48 h [3] [nM] | CC50 at 48 h [4] [nM] | pEC50 [5]
C[C@H](NP(=O)(OC[C@@]1(CF)O[C@@H](c2ccc3c(N)ncnn23)[C@H](O)[C@@H]1O)Oc1ccccc1)C(=O)OCCC(C)(C)C (stereo partly drawn) [Example 4, 3,3-dimethylbutyl ((((2R,3S,4R,5S)-5-(4-aminopyrrolo[2,1-f][1,2,4]triazin-7-yl)-2-(fluoromethyl)-3,4-dihydroxytetrahydrofuran-2-yl)methoxy)(phenoxy)phosphoryl)-L-alaninate] | 6.88 | 7.54 | > 100000 | 4780 | 17800 | 7.24
CCC(C)(C)COC(=O)[C@H](C)NP(=O)(OC[C@@]1(CF)O[C@@H](c2ccc3c(N)ncnn23)[C@H](O)[C@@H]1O)Oc1ccccc1 (stereo partly drawn) [Example 7, 2,2-dimethylbutyl ((((2R,3S,4R,5S)-5-(4-aminopyrrolo[2,1-f][1,2,4]triazin-7-yl)-2-(fluoromethyl)-3,4-dihydroxytetrahydrofuran-2-yl)methoxy)(phenoxy)phosphoryl)-L-alaninate] | 6.80 | 7.62 | > 100000 | 6690 | > 25000 | 7.40
CCOC(=O)[C@H](C)NP(=O)(OC[C@@]1(CF)O[C@@H](c2ccc3c(N)ncnn23)[C@H](O)[C@@H]1O)Oc1ccccc1 (stereo partly drawn) [Example 13, ethyl ((((2R,3S,4R,5S)-5-(4-aminopyrrolo[2,1-f][1,2,4]triazin-7-yl)-2-(fluoromethyl)-3,4-dihydroxytetrahydrofuran-2-yl)methoxy)(phenoxy)phosphoryl)-L-alaninate] | 6.31 | 6.07 | > 89400 | > 10200 | > 25000 | 6.56
C[C@H](NP(=O)(OC[C@@]1(CF)O[C@@H](c2ccc3c(N)ncnn23)[C@H](O)[C@@H]1O)Oc1ccccc1)C(=O)OC1CCCCC1 (stereo partly drawn) [Example 14, cyclohexyl ((((2R,3S,4R,5S)-5-(4-aminopyrrolo[2,1-f][1,2,4]triazin-7-yl)-2-(fluoromethyl)-3,4-dihydroxytetrahydrofuran-2-yl)methoxy)(phenoxy)phosphoryl)-L-alaninate] | 6.69 | 6.73 | > 100000 | > 7760 | > 25000 | 6.78
CCC(=O)O[C@H]1[C@H](c2ccc3c(N)ncnn23)O[C@](CF)(CO[P@@](=O)(N[C@@H](C)C(=O)OC(C)C)Oc2ccccc2)[C@H]1OC(=O)CC [Example 22, (2R,3S,4S,5S)-5-(4-aminopyrrolo[2,1-f][1,2,4]triazin-7-yl)-2-(fluoromethyl)-2-((((S)-(((S)-1-isopropoxy-1-oxopropan-2-yl)amino)(phenoxy)phosphoryl)oxy)methyl) tetrahydrofuran-3,4-diyl dipropionate] | 5.99 | 5.63 | 71700 | > 23600 | > 25000 | 6.13
CC(C)OC(=O)[C@H](C)N[P@](=O)(OC[C@@]1(CF)O[C@@H](c2ccc3c(N)ncnn23)[C@H](OC(=O)C(C)C)[C@@H]1OC(=O)C(C)C)Oc1ccccc1 [Example 23, (2R,3S,4S,5S)-5-(4-aminopyrrolo[2,1-f][1,2,4]triazin-7-yl)-2-(fluoromethyl)-2-((((S)-(((S)-1-isopropoxy-1-oxopropan-2-yl)amino)(phenoxy)phosphoryl)oxy)methyl) tetrahydrofuran-3,4-diyl bis(2-methylpropanoate)] | 5.74 | 5.36 | 26300 | 10900 | > 23200 | 6.41
